Experimental data: PubChem BioAssay (NCI)
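Interpolation was linear, between the two tested concentrations surrounding the appropriate level; five concentrations were tested over 48 hours in 96-well plates. GI50 is the concentration that inhibits growth by half. TGI denotes the concentration required for complete inhibition of growth.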

How the values were obtained:
Assay in all cases: NCI anticancer screen, dose series, 48 h
SF-268 CNS = test system: SF-268 CNS
IGROV1 ovarian = test system: IGROV1 ovarian
T-47D breast = test system: T-47D breast
UACC-62 melanoma = test system: UACC-62 melanoma
OVCAR-4 ovarian = test system: OVCAR-4 ovarian
MOLT-4 leukemia = test system: MOLT-4 leukemia
NCI-H226 lung = test system: NCI-H226 lung
HCC-2998 colon = test system: HCC-2998 colon
HT29 colon = test system: HT29 colon
UO-31 renal = test system: UO-31 renal
SF-539 CNS = test system: SF-539 CNS
RXF 393 renal = test system: RXF 393 renal
HOP-92 NSCLC = test system: HOP-92 NSCLC
HOP-62 NSCLC = test system: HOP-62 NSCLC
COLO 205 colon = test system: COLO 205 colon
SK-MEL-5 melanoma = test system: SK-MEL-5 melanoma
PC-3 prostate = test system: PC-3 prostate
OVCAR-5 ovarian = test system: OVCAR-5 ovarian
EKVX NSCLC = test system: EKVX NSCLC
K-562 leukemia = test system: K-562 leukemia
OVCAR-8 ovarian = test system: OVCAR-8 ovarian
SW-620 colon = test system: SW-620 colon
SK-MEL-28 melanoma = test system: SK-MEL-28 melanoma
HCT-15 colon = test system: HCT-15 colon
MALME-3M melanoma = test system: MALME-3M melanoma
CAKI-1 renal = test system: CAKI-1 renal
NCI/ADR-RES ovarian = test system: NCI/ADR-RES ovarian
KM12 colon = test system: KM12 colon
SK-MEL-2 melanoma = test system: SK-MEL-2 melanoma
SF-295 CNS = test system: SF-295 CNS
CCRF-CEM leukemia = test system: CCRF-CEM leukemia
SK-OV-3 ovarian = test system: SK-OV-3 ovarian
NCI-H460 lung = test system: NCI-H460 lung
SN12C renal = test system: SN12C renal
ACHN renal = test system: ACHN renal
SR leukemia = test system: SR leukemia
RPMI-8226 leukemia = test system: RPMI-8226 leukemia
BT-549 breast = test system: BT-549 breast
UACC-257 melanoma = test system: UACC-257 melanoma
MDA-MB-435 = test system: MDA-MB-435
HS 578T breast = test system: HS 578T breast
NCI-H23 lung = test system: NCI-H23 lung
HCT-116 colon = test system: HCT-116 colon
786-0 renal = test system: 786-0 renal
NCI-H522 lung = test system: NCI-H522 lung
A549 NSCLC = test system: A549 NSCLC
TK-10 renal = test system: TK-10 renal
A498 renal = test system: A498 renal
LOX IMVI melanoma = test system: LOX IMVI melanoma
U251 CNS = test system: U251 CNS
M14 melanoma = test system: M14 melanoma
MDA-MB-231 breast = test system: MDA-MB-231 breast
DU-145 prostate = test system: DU-145 prostate
SNB-75 CNS = test system: SNB-75 CNS
MCF7 breast = test system: MCF7 breast
OVCAR-3 ovarian = test system: OVCAR-3 ovarian
SNB-19 CNS = test system: SNB-19 CNS
HL-60(TB) leukemia = test system: HL-60(TB) leukemia

## COc1ccc2c(-c3ccc(OCCN(C)C)cc3)c(Oc3ccccc3)c(=O)oc2c1
SF-268 CNS
  TGI: 18.9 µM
IGROV1 ovarian
  TGI: 19.1 µM
T-47D breast
  TGI: > 59.9 µM
UACC-62 melanoma
  TGI: 9.82 µM
OVCAR-4 ovarian
  TGI: 40.7 µM
MOLT-4 leukemia
  TGI: 11.8 µM
NCI-H226 lung
  TGI: 40 µM
HCC-2998 colon
  TGI: 10.3 µM
HT29 colon
  TGI: 22.4 µM
UO-31 renal
  TGI: 13.9 µM
SF-539 CNS
  TGI: 16.7 µM
RXF 393 renal
  TGI: 20.5 µM
HOP-92 NSCLC
  TGI: 25.8 µM
HOP-62 NSCLC
  TGI: 27.3 µM
COLO 205 colon
  TGI: 9.59 µM
SK-MEL-5 melanoma
  TGI: 5.89 µM
PC-3 prostate
  TGI: 18.9 µM
OVCAR-5 ovarian
  TGI: 28.2 µM
EKVX NSCLC
  TGI: 23.5 µM
K-562 leukemia
  TGI: 12.4 µM
OVCAR-8 ovarian
  TGI: 26.2 µM
SW-620 colon
  TGI: 16.7 µM
SK-MEL-28 melanoma
  TGI: 5.53 µM
HCT-15 colon
  TGI: 14.6 µM
MALME-3M melanoma
  TGI: 11.6 µM
CAKI-1 renal
  TGI: 25.1 µM
NCI/ADR-RES ovarian
  TGI: 20.4 µM
KM12 colon
  TGI: > 39.4 µM
SK-MEL-2 melanoma
  TGI: 13.9 µM
SF-295 CNS
  TGI: 8.91 µM
CCRF-CEM leukemia
  TGI: 10.1 µM
SK-OV-3 ovarian
  TGI: 18.1 µM
NCI-H460 lung
  TGI: 22.2 µM
SN12C renal
  TGI: 18.7 µM
ACHN renal
  TGI: 22 µM
SR leukemia
  TGI: 5.17 µM
RPMI-8226 leukemia
  TGI: 15.5 µM
BT-549 breast
  TGI: 24.4 µM
UACC-257 melanoma
  TGI: 4.52 µM
MDA-MB-435
  TGI: 7.12 µM
HS 578T breast
  TGI: 21.5 µM
NCI-H23 lung
  TGI: 28.8 µM
HCT-116 colon
  TGI: 8.79 µM
786-0 renal
  TGI: 8.68 µM
NCI-H522 lung
  TGI: 11.3 µM
A549 NSCLC
  TGI: 10.4 µM
TK-10 renal
  TGI: 23 µM
A498 renal
  TGI: 26.8 µM
LOX IMVI melanoma
  TGI: 26.6 µM
U251 CNS
  TGI: 8.9 µM
M14 melanoma
  TGI: 3.08 µM
MDA-MB-231 breast
  TGI: 10.2 µM
DU-145 prostate
  TGI: 27.6 µM
SNB-75 CNS
  TGI: 21.6 µM
MCF7 breast
  TGI: 15.3 µM
OVCAR-3 ovarian
  TGI: 21.2 µM
SNB-19 CNS
  TGI: 17.2 µM

## OCC#Cc1ccccc1C#CCCCCCCC#Cc1ccccc1C#CCO
SF-268 CNS
  GI50: 16.2 µM
  TGI: 32.5 µM
IGROV1 ovarian
  GI50: 7.97 µM
  TGI: 44.3 µM
T-47D breast
  GI50: 18.1 µM
  TGI: 33.7 µM
UACC-62 melanoma
  GI50: 16.8 µM
  TGI: 31.4 µM
OVCAR-4 ovarian
  GI50: 18.4 µM
  TGI: 45.6 µM
MOLT-4 leukemia
  GI50: 11.1 µM
  TGI: 30.8 µM
NCI-H226 lung
  GI50: 16.4 µM
  TGI: 33.1 µM
HCC-2998 colon
  GI50: 17.7 µM
  TGI: 31.5 µM
HT29 colon
  GI50: 22.7 µM
  TGI: > 75.9 µM
UO-31 renal
  GI50: 24 µM
  TGI: > 53.1 µM
SF-539 CNS
  GI50: 18.7 µM
  TGI: 32.8 µM
RXF 393 renal
  GI50: 16.8 µM
  TGI: 33.6 µM
HOP-92 NSCLC
  GI50: 13.1 µM
  TGI: 26.5 µM
HOP-62 NSCLC
  GI50: 9.78 µM
  TGI: 25.8 µM
COLO 205 colon
  GI50: 18.8 µM
  TGI: 36.4 µM
SK-MEL-5 melanoma
  GI50: 17 µM
  TGI: 31.3 µM
PC-3 prostate
  GI50: 15.9 µM
  TGI: 33.3 µM
OVCAR-5 ovarian
  GI50: 17 µM
  TGI: 30.7 µM
EKVX NSCLC
  GI50: 17.5 µM
  TGI: 32.7 µM
K-562 leukemia
  GI50: 15.8 µM
  TGI: 40.8 µM
OVCAR-8 ovarian
  GI50: 17 µM
  TGI: 35.8 µM
SW-620 colon
  GI50: 22.2 µM
  TGI: 41.6 µM
SK-MEL-28 melanoma
  GI50: 23.6 µM
  TGI: 62.2 µM
HCT-15 colon
  GI50: 23.2 µM
  TGI: 59.6 µM
MALME-3M melanoma
  GI50: 15.7 µM
  TGI: 30.1 µM
CAKI-1 renal
  GI50: 17.4 µM
  TGI: 32.8 µM
NCI/ADR-RES ovarian
  GI50: 17.7 µM
  TGI: 33 µM
KM12 colon
  GI50: 18.1 µM
  TGI: 37.1 µM
SK-MEL-2 melanoma
  GI50: 34.6 µM
  TGI: > 100 µM
SF-295 CNS
  GI50: 14.6 µM
  TGI: 28.6 µM
SK-OV-3 ovarian
  GI50: 15.8 µM
  TGI: 30.5 µM
NCI-H460 lung
  GI50: 20.5 µM
  TGI: 47.4 µM
SN12C renal
  GI50: 15.8 µM
  TGI: 31.1 µM
ACHN renal
  GI50: 17.4 µM
  TGI: 31.5 µM
SR leukemia
  GI50: 16 µM
  TGI: 34.6 µM
BT-549 breast
  GI50: 20.2 µM
  TGI: 37.9 µM
UACC-257 melanoma
  GI50: 18.9 µM
  TGI: 34.5 µM
MDA-MB-435
  GI50: 18.1 µM
  TGI: 34.1 µM
HS 578T breast
  GI50: 18.2 µM
  TGI: 39.1 µM
NCI-H23 lung
  GI50: 17.1 µM
  TGI: 30.9 µM
HCT-116 colon
  GI50: 10.7 µM
  TGI: 24.5 µM
786-0 renal
  GI50: 17.3 µM
  TGI: 31.1 µM
NCI-H522 lung
  GI50: 882 nM
HL-60(TB) leukemia
  GI50: 25.2 µM
  TGI: 48.5 µM
A549 NSCLC
  GI50: 17.2 µM
  TGI: 33.9 µM
TK-10 renal
  GI50: 19.2 µM
  TGI: 34.2 µM
A498 renal
  GI50: 21.5 µM
  TGI: 36.1 µM
LOX IMVI melanoma
  GI50: 18 µM
  TGI: 34.7 µM
U251 CNS
  GI50: 18.2 µM
  TGI: 34.1 µM
M14 melanoma
  GI50: 5.64 µM
  TGI: 22.9 µM
MDA-MB-231 breast
  GI50: 9.97 µM
  TGI: 24.8 µM
DU-145 prostate
  GI50: 19.1 µM
  TGI: 35.1 µM
MCF7 breast
  GI50: 18.4 µM
  TGI: 40.7 µM
OVCAR-3 ovarian
  GI50: 18.3 µM
  TGI: 33.4 µM
SNB-19 CNS
  GI50: 18.6 µM
  TGI: 34.2 µM
